Experimental data reported in patent US20240237526A1, “ORGANIC COMPOUND, LIGHT-EMITTING DEVICE, LIGHT-EMITTING APPARATUS, AND ELECTRONIC DEVICE” (SEMICONDUCTOR ENERGY LABORATORY CO., LTD., priority 2022, published 2024).

Assay: solubility test in water by visual inspection
Assay type: physicochemical
Settings: room temperature (RT), one atmosphere, ultrasonic irradiation
Procedure: In this example, the solubility of the organic compound that can be used in the display apparatus of one embodiment of the present invention is described. Note that the solubility test was conducted at a pressure of one atmosphere at room temperature (RT).
Into a 110 mL sample bottle, 1.22 mg of 2tiiSF was put and 10 mL of water was added thereto. This mixture was irradiated with ultrasonic waves for one minute. A precipitated white powder was found by visual inspection for an insoluble residue. After further addition of 10 mL of water and one-minute ultrasonic wave irradiation, a precipitated white powder was found by visual inspection. This procedure was repeated until the dissolution was confirmed by visual inspection.
The precipitated white powder was found until the total amount of water reached 100 mL.
Into a 110 mL sample bottle, 1.08 mg of 2hppSF was put and 10 mL of water was added thereto. This mixture was irradiated with ultrasonic waves for one minute. A precipitated white powder was found by visual inspection for an insoluble residue. After further addition of 10 mL of water and one-minute ultrasonic wave irradiation, a precipitated white powder was found by visual inspection. This procedure was repeated until the dissolution was confirmed by visual inspection.
The precipitated white powder was found until the total amount of water reached 50 mL. […]

c1ccc2c(c1)-c1ccccc1C21c2ccccc2-c2ccc(N3CCN4CCN=C43)cc21 [2tiiSF, 1-(9,9′-spirobi[9H-fluoren]-2-yl)-2,3,5,6-tetrahydro-1H-imidazo[1,2-a]imidazole]
weight which can be dissolved in 1.0 mL of water: less than 0.012 mg
